Experimental data from patent publication US20230226065A1, “ANTI-INFLAMMATORY COMPOSITIONS, METHODS AND USES THEREOF” (COMVITA LIMITED, priority 2020, published 2023).

Key:
[1] = test system: inactive MMP-9 (pro-MMP-9); assay: Gelatin gel zymography, inactive MMP-9 band; format: biochemical; conditions: inactive MMP-9 (~47 kDa band); densitometry vs no inhibitor; n=5
Experimental: Novex™ 10% Zymogram Plus (Gelatin) Protein Gels (15 wells) were purchased from Thermo Fisher Scientific Inc. (Auckland, New Zealand). All chemicals required for the zymogram analysis were also purchased from Thermo Fisher, these include Novex™ Sharp Pre-stained Protein Standard, Novex Tris-Glycine SDS sample buffer, Novex Tris-Glycine SDS running buffer, Novex Zymogram renaturing buffer and Novex Zymogram developing buffer. […] Gelatin gel zymography was performed as an independent technique to confirm the inhibition of MMP-9 from 3,6,7-trimethyllumazine. This technique uses a non-reducing SDS-PAGE (sodium dodecyl sulfate polyacrylamide gel electrophoresis) gel embedded with gelatin. Proteins are migrated and separated during electrophoresis. The SDS is removed after electrophoresis and the gel is then incubated with essential cofactors required for enzymatic activity. The embedded gelatin can be digested by MMP-9, resulting in clear bands on a dark blue background after staining with Coomassie blue dyes. The gelatinase activity is represented by band densitometry, which can be assessed with image analysis software. […]
After incubation, the gelatin gel was rinsed with water for three times (5 min each) under gentle agitation. […] MMP-9 activities were analysed using densitometry on ImageJ Version 1.52a. […]

[2] = test system: COX-2 protein expression in THP-1 cells; assay: LPS-induced COX-2 protein expression in THP-1 cells (Western blot); format: cell-based, human; conditions: for COX-2 Relative expression (mean ± SEM): LPS 24 hours, LPS positive control 1.26 ± 0.11, n=6
Experimental: THP-1 cells were seeded in 12-well tissue-culture treated plates at a density of 500,000 cells/well in growth media overnight. […] Cells were washed with cold PBS and lysed in RIPA buffer containing protease inhibitors (Sigma P2714) for 15 minutes on ice. Debris was pelleted by centrifugation at 14,000×g for 15 min and lysate supernatants were frozen at −80° C. for later analysis by western blot.
Western blots for semi-quantitative COX-2 (Abcam ab188183) protein expression were conducted on THP-1 monocyte cells lysed with RIPA buffer containing protease inhibitors. A total of 10 μg protein was loaded onto precast 10% acrylamide gels (BioRad, NZ) then separated by electrophoresis at 120 V at room temperature. […] The membranes were then incubated with the primary antibody that correspond to the protein of interest for 1 h. […] Western blot images were captured with an Amersham™ Imager 600 (GE Healthcare, Chicago, Ill., USA) and densitometry measurement of protein bands was analysed with the accompanying image analysis software.
For analysis of Western blots, densitometry measurements from the proteins of interest were normalised to the densitometry of p-actin for each sample. […] The significance level was set at p≤0.05.

Compound: Cc1nc2[nH]c(=O)n(C)c(=O)c2nc1C [3,6,7-trimethyllumazine]
- percentage inhibition of gelatinase activity [1]: 17%
- COX-2 Relative expression (mean ± SEM) ([2]; 12.5 μg/mL): 0.98 ± 0.05
- COX-2 Relative expression (mean ± SEM) ([2]; 25 μg/mL): 0.99 ± 0.07
- reduction in COX-2 protein compared to the LPS treatment ([2]; 50 ug/mL): significant reduction
- COX-2 Relative expression (mean ± SEM) ([2]; 50 μg/mL): 0.90 ± 0.09
- COX-2 Relative expression (mean ± SEM) ([2]; 100 μg/mL): 0.96 ± 0.13
- reduction of COX-2 protein expression compared to LPS-stimulated cells ([2]; all doses tested, 12.5-100 μg/mL): 16-23%
